Assay [1] concerns HCV genotype 1a (H77 strain) replicon in HUH-7 cells. As to the kind of experiment: HCV replicon luciferase reporter assay, genotype 1a. It counts as cell-based. To be noted: Hepatitis C virus, Huh-7, 72 h, HCV genotype 1a replicon luciferase, 3 days incubation, read-out: LE_1a (EC50, range). The method in brief:
(§1)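 Replicon inhibition for both genotypes was measured as Renilla luciferase signal (EnduRen, 7.5 μM final, 2 h) after 3-day, 37° C exposure of replicon-bearing HUH-7 cells in 4% FCS DMEM, 0.5% DMSO. The 1b construct carries S1179I; the 1a H77 construct carries P1496L and S2204I. Twenty-point, 3-fold dilutions were fitted four-parametrically for EC50, and CC50 was taken from multiplexed Cell Titer-Blue.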
Background: A replicon is a self-replicating genome or part of one, used to study replication in cells.

The subject of assay [2] is HCV genotype 1b (Con1) replicon in HUH-7 cells. As to the kind of experiment: HCV replicon luciferase reporter assay, genotype 1b. It counts as cell-based. To be noted: Hepatitis C virus, Huh-7, 72 h, HCV genotype 1b replicon luciferase, 3 days incubation, read-out: LE_1b (EC50, range). The method in brief: as §1

Where two headings read alike, the source gives them in different places.

Consider `COc1cc2ccnc(O[C@@H]3C[C@H]4C(=O)N[C@]5(C(=O)NS(=O)(=O)C6(CF)CC6)C[C@H]5/C=C\CC[C@@H](C)C[C@@H](C)[C@H](NC(=O)c5ccccc5C(F)(F)F)C(=O)N4C3)c2cc1F` [Compound 4096, (2R,6S,7R,9R,13aS,14aR,16aS,Z)-2-(7-fluoro-6-methoxyisoquinolin-1-yloxy)-N-(1-(fluoromethyl)cyclopropylsulfonyl)-7,9-dimethyl-5,16-dioxo-6-(2-(trifluoromethyl)benzamido)-1,2,3,5,6,7,8,9,10,11,13a,14,14a,15,16,16a-hexadecahydrocyclopropa[e]pyrrolo[1,2-a][1,4]diazacyclopentadecine-14a-carboxamide], for which the 50% effective concentration (EC50) in assay [1] and in assay [2] was under 5.46 nM in each case.
As to `COc1cc2ccnc(O[C@@H]3C[C@H]4C(=O)N[C@]5(C(=O)NS(=O)(=O)C6(CF)CC6)C[C@H]5/C=C\CC[C@@H](C)C[C@@H](C)[C@H](NC(=O)c5ccc(F)cc5F)C(=O)N4C3)c2cc1F` [Compound 4097, (2R,6S,7R,9R,13aS,14aR,16aS,Z)-6-(2,4-difluorobenzamido)-2-(7-fluoro-6-methoxyisoquinolin-1-yloxy)-N-(1-(fluoromethyl)cyclopropylsulfonyl)-7,9-dimethyl-5,16-dioxo-1,2,3,5,6,7,8,9,10,11,13a,14,14a,15,16,16a-hexadecahydrocyclopropa[e]pyrrolo[1,2-a][1,4]diazacyclopentadecine-14a-carboxamide], the EC50 in assay [1] and in assay [2] was under 5.46 nM throughout.
In the case of `C[C@@H]1CC/C=C\[C@@H]2C[C@@]2(C(=O)NS(=O)(=O)C2(C)CC2)NC(=O)[C@@H]2C[C@@H](Oc3cnc4cc(F)ccc4n3)CN2C(=O)[C@@H](NC(=O)OC(C)(C)C(F)(F)F)[C@H](C)C1` [Compound 4099], the 50% effective concentration (EC50) in assay [1] (GETYPE1A) and in assay [2] (GETYPE1B) was under 5.46 nM each time.
Consider `CC[C@@H]1C[C@H](C)CC/C=C\[C@@H]2C[C@@]2(C(=O)NS(=O)(=O)C2(C)CC2)NC(=O)[C@@H]2C[C@@H](Oc3cnc4ccc(OC)cc4c3)CN2C(=O)[C@H]1NC(=O)OC(C)(C)C(F)(F)F` [Compound 4100], for which the concentration for a half-maximal effect (EC50) in assay [1] (GETYPE1A) and in assay [2] (GETYPE1B) was under 5.46 nM throughout.
Take `COc1cc2c(N3CCOCC3)cnc(O[C@@H]3C[C@H]4C(=O)N[C@]5(C(=O)NS(=O)(=O)C6(C)CC6)C[C@H]5/C=C\CC[C@@H](C)C[C@@H](C)[C@H](NC(=O)OC(C)(C)C(F)(F)F)C(=O)N4C3)c2cc1F` [Compound 4101]: the concentration for a half-maximal effect (EC50) in assay [1] (GETYPE1A) and in assay [2] (GETYPE1B) was under 5.46 nM throughout.
Regarding `C[C@@H]1CC/C=C\[C@@H]2C[C@@]2(C(=O)NS(=O)(=O)C2(C)CC2)NC(=O)[C@@H]2C[C@@H](Oc3ncc(O)c4ccccc34)CN2C(=O)[C@@H](NC(=O)OC(C)(C)C(F)(F)F)[C@H](C)C1` [Compound 4103], the EC50 in assay [1] (GETYPE1A) and in assay [2] (GETYPE1B) was 4.82 to 103 nM each time.
For the molecule `CCOc1cnc(O[C@@H]2C[C@H]3C(=O)N[C@]4(C(=O)NS(=O)(=O)C5(CF)CC5)C[C@H]4/C=C\CC[C@@H](C)C[C@@H](C)[C@H](NC(=O)OC(C)(C)C(F)(F)F)C(=O)N3C2)c2ccc(OC)cc12` [Compound 4104], the EC50 in assay [1] (GETYPE1A) and in assay [2] (GETYPE1B) was under 5.46 nM throughout.
Consider `CCOc1cnc(O[C@@H]2C[C@H]3C(=O)N[C@]4(C(=O)NS(=O)(=O)C5(CF)CC5)C[C@H]4/C=C\CC[C@@H](C)C[C@@H](C)[C@H](NC(=O)OC(C)(C)C)C(=O)N3C2)c2ccc(OC)cc12` [Compound 4105, tert-butyl (2R,6S,7R,9R,13aS,14aR,16aS,Z)-2-(4-ethoxy-6-methoxyisoquinolin-1-yloxy)-14a-(1-(fluoromethyl)cyclopropylsulfonylcarbamoyl)-7,9-dimethyl-5,16-dioxo-1,2,3,5,6,7,8,9,10,11,13a,14,14a,15,16,16a-hexadecahydrocyclopropa[e]pyrrolo[1,2-a][1,4]diazacyclopentadecin-6-ylcarbamate], for which the concentration giving a half-maximal response (EC50) in assay [1] and in assay [2] was under 5.46 nM in each case.
For `COc1ccc2c(O[C@@H]3C[C@H]4C(=O)N[C@]5(C(=O)NS(=O)(=O)C6(C)CC6)C[C@H]5/C=C\CC[C@@H](C)C[C@@H](C)[C@H](NC(=O)OC(C)(C)C(F)(F)F)C(=O)N4C3)ncc(OC(=O)OC(C)(C)C(F)(F)F)c2c1` [Compound 4106], the concentration for a half-maximal effect (EC50) in assay [1] (GETYPE1A) and in assay [2] (GETYPE1B) was 4.82 to 103 nM in each case.
Consider `COc1ccc2nc(O[C@@H]3C[C@H]4C(=O)N[C@]5(C(=O)NS(=O)(=O)C6(CF)CC6)C[C@H]5/C=C\CC[C@@H](C)C[C@@H](C)[C@H](NC(=O)OC(C)(C)C(F)(F)F)C(=O)N4C3)c(C)nc2c1` [Compound 4107], for which the concentration for a half-maximal effect (EC50) in assay [1] (GETYPE1A) and in assay [2] (GETYPE1B) was under 5.46 nM throughout.
Consider `COc1ccc2nc(C)c(O[C@@H]3C[C@H]4C(=O)N[C@]5(C(=O)NS(=O)(=O)C6(CF)CC6)C[C@H]5/C=C\CC[C@@H](C)C[C@@H](C)[C@H](NC(=O)OC(C)(C)C(F)(F)F)C(=O)N4C3)nc2c1` [Compound 4108], for which the half-maximal effective concentration (EC50) in assay [1] (GETYPE1A) and in assay [2] (GETYPE1B) was under 5.46 nM throughout.
In the case of `COc1ccc2nc(C)c(O[C@@H]3C[C@H]4C(=O)N[C@]5(C(=O)NS(=O)(=O)C6(C)CC6)C[C@H]5/C=C\CC[C@@H](C)C[C@@H](C)[C@H](NC(=O)OC(C)(C)C)C(=O)N4C3)nc2c1` [Compound 4109, tert-butyl (2R,6S,7R,9R,13aS,14aR,16aS,Z)-2-(7-methoxy-3-methylquinoxalin-2-yloxy)-7,9-dimethyl-14a-(1-methylcyclopropylsulfonylcarbamoyl)-5,16-dioxo-1,2,3,5,6,7,8,9,10,11,13a,14,14a,15,16,16a-hexadecahydrocyclopropa[e]pyrrolo[1,2-a][1,4]diazacyclopentadecin-6-ylcarbamate], the EC50 in assay [1] and in assay [2] was under 5.46 nM throughout.
As to `COc1cnc(O[C@@H]2C[C@H]3C(=O)N[C@]4(C(=O)NS(=O)(=O)C5(CO)CC5)C[C@H]4/C=C\CC[C@@H](C)C[C@@H](C)[C@H](NC(=O)OC(C)(C)C(F)(F)F)C(=O)N3C2)c2ccccc12` [Compound 4110], the EC50 in assay [1] (GETYPE1A) and in assay [2] (GETYPE1B) was 4.82 to 103 nM in each case.
Take `COc1cnc(O[C@@H]2C[C@H]3C(=O)N[C@]4(C(=O)NS(=O)(=O)C5(CO)CC5)C[C@H]4/C=C\CC[C@H](C)C[C@@H](C)[C@H](NC(=O)OC(C)(C)C(F)(F)F)C(=O)N3C2)c2ccccc12` [Compound 4111]: the concentration for a half-maximal effect (EC50) was over 87.4 nM in assay [1] (GETYPE1A) and 4.82 to 103 nM in assay [2] (GETYPE1B).
As for `COc1cnc(O[C@@H]2C[C@H]3C(=O)N[C@]4(C(=O)NS(=O)(=O)C5(CO)CC5)C[C@H]4/C=C\CC[C@@H](C)C[C@@H](C)[C@H](N)C(=O)N3C2)c2ccccc12` [Compound 4112, (2R,6S,7R,9R,13aS,14aR,16aS,Z)-6-amino-N-(1-(hydroxymethyl)cyclopropylsulfonyl)-2-(4-methoxyisoquinolin-1-yloxy)-7,9-dimethyl-5,16-dioxo-1,2,3,5,6,7,8,9,10,11,13a,14,14a,15,16,16a-hexadecahydrocyclopropa[e]pyrrolo[1,2-a][1,4]diazacyclopentadecine-14a-carboxamide], the half-maximal effective concentration (EC50) in assay [1] and in assay [2] was over 87.4 nM throughout.
With `COc1cnc(O[C@@H]2C[C@H]3C(=O)N[C@]4(C(=O)NS(=O)(=O)C5(CO)CC5)C[C@H]4/C=C\CC[C@H](C)C[C@@H](C)[C@H](N)C(=O)N3C2)c2ccccc12` [Compound 4113, (2R,6S,7R,9S,13aS,14aR,16aS,Z)-6-amino-N-(1-(hydroxymethyl)cyclopropylsulfonyl)-2-(4-methoxyisoquinolin-1-yloxy)-7,9-dimethyl-5,16-dioxo-1,2,3,5,6,7,8,9,10,11,13a,14,14a,15,16,16a-hexadecahydrocyclopropa[e]pyrrolo[1,2-a][1,4]diazacyclopentadecine-14a-carboxamide], the EC50 in assay [1] and in assay [2] was over 87.4 nM in each case.
For the molecule `COc1cnc(O[C@@H]2C[C@H]3C(=O)N[C@]4(C(=O)NS(=O)(=O)C5(CO)CC5)C[C@H]4/C=C\CC[C@@H](C)C[C@@H](C)[C@H](NC(=O)OC(C)(C)C)C(=O)N3C2)c2ccccc12` [Compound 4114, tert-butyl (2R,6S,7R,9R,13aS,14aR,16aS,Z)-14a-(1-(hydroxymethyl)cyclopropylsulfonylcarbamoyl)-2-(4-methoxyisoquinolin-1-yloxy)-7,9-dimethyl-5,16-dioxo-1,2,3,5,6,7,8,9,10,11,13a,14,14a,15,16,16a-hexadecahydrocyclopropa[e]pyrrolo[1,2-a][1,4]diazacyclopentadecin-6-ylcarbamate], the EC50 in assay [1] and in assay [2] was 4.82 to 103 nM throughout.
`COc1cnc(O[C@@H]2C[C@H]3C(=O)N[C@]4(C(=O)NS(=O)(=O)C5(CO)CC5)C[C@H]4/C=C\CC[C@H](C)C[C@@H](C)[C@H](NC(=O)OC(C)(C)C)C(=O)N3C2)c2ccccc12` [Compound 4115, tert-butyl (2R,6S,7R,9S,13aS,14aR,16aS,Z)-14a-(1-(hydroxymethyl)cyclopropylsulfonylcarbamoyl)-2-(4-methoxyisoquinolin-1-yloxy)-7,9-dimethyl-5,16-dioxo-1,2,3,5,6,7,8,9,10,11,13a,14,14a,15,16,16a-hexadecahydrocyclopropa[e]pyrrolo[1,2-a][1,4]diazacyclopentadecin-6-ylcarbamate]: the 50% effective concentration (EC50) in assay [1] and in assay [2] was under 5.46 nM throughout.

A word on the EC50: it is the concentration that produces a half-maximal response.

These data come from patent US9499550B2 (BRISTOL-MYERS SQUIBB COMPANY, priority 2012, dated 2016).
